PMC11245519, “Ubiquitous purine sensor modulates diverse signal transduction pathways in bacteria” (Nature Communications, 2024)
Read-outs that look alike come from different tables or passages of the source.

Columns and labels:
R5 (WP_131005693-LBD) [1] = test: Thermal shift assay of the R5 LBD; format: binding, Clostridioides difficile; settings: change in Tm, threshold 2 °C
R11 (WP_162024566-LBD) [2] = test: Microcalorimetric titration (ITC) of the R11 LBD with ligands; format: binding, Lentimonas sp. CC4; settings: 25 °C; for Binding in microcalorimetric titration, R11: pH 7.0
R14 (WP_021170906-LBD) = R14 (WP_021170906-LBD) (Sporomusa ovata, UniProt A0A0U1L1T7); test: Microcalorimetric titration (ITC) of the R14 LBD with ligands; format: binding; settings: for Kd: read-out: Dissociation constant, R14
R1 (WP_219614703-LBD) = R1 (WP_219614703-LBD) (Aeromonas salmonicida, UniProt T0PLV6); test: Microcalorimetric titration (ITC) of the R1 LBD with ligands; format: binding; settings: for Kd: read-out: Dissociation constant, R1
R15 (WP_207952809-LBD) [3] = molecular target: T1, R15 (WP_207952809-LBD) (Paenibacillus agricola, UniProt A0ABX0IZG8); test: Microcalorimetric titration (ITC) of the R15 LBD with ligands; format: binding, Paenibacillus sp. S3N08; settings: for Binding in microcalorimetric titration, R15 / Kd: 25 °C; for Binding in microcalorimetric titration, R15: pH 7.0; for Kd: pH 7.0, read-out: Dissociation constant, R15; for N value, R15: One binding site model, * = hyperbolic curve
R4 (WP_199478134-LBD) [4] = format: binding, Marinomonas spartinae; settings: ITC, 25 °C, pH 8.0; read-out: Dissociation constant, R4
R13 (WP_167859577-LBD) = format: binding, Paenibacillus cymbidii; settings: change in Tm, threshold 2 °C; 2 mM ligand (Supplementary Fig. 7)
R5 (WP_131005693-LBD) [5] = test: Microcalorimetric titration (ITC) of the R5 LBD with ligands; format: binding, Clostridioides difficile; settings: 25 °C, pH 7.0
[6] = system: members of the family dCache_1PU (11 soluble LBDs); test: Thermal shift ligand screening of all dCache_1PU proteins (Biolog arrays PM3B and PM5); format: binding
R8 (WP_227113344-LBD) = R8 (WP_227113344-LBD) (Eggerthella sinensis, UniProt A0ABX9HL97); test: Microcalorimetric titration (ITC) of the R8 LBD with ligands; format: binding
[7] = system: dCache_1PU domains (11 proteins analyzed); test: Summary of binding data (thermal shift assays and ITC) for the 11 dCache_1PU proteins; settings: of the 11 proteins analyzed
R6 (WP_185834821-LBD) [8] = molecular target: T2, R6 (WP_185834821-LBD) (Vibrio cholerae, UniProt Q9KPY8); test: Thermal shift assay of the R6 LBD; format: binding; settings: change in Tm, threshold 2 °C
R4 (WP_199478134-LBD) [9] = test: Thermal shift assay of the R4 LBD; format: binding, Marinomonas spartinae; settings: change in Tm, threshold 2 °C
R10 (WP_110129388-LBD) = format: binding, Coraliomargarita sinensis; settings: change in Tm, threshold 2 °C; for Binding in thermal shift assay, R10: 2 mM ligand (Supplementary Fig. 7)
R15 (WP_207952809-LBD) [10] = molecular target: T1, R15 (WP_207952809-LBD); test: Thermal shift assay of the R15 LBD; format: binding, Paenibacillus sp. S3N08; settings: change in Tm, threshold 2 °C
[11] = system: R6 diguanylate cyclase (VC2224) expressed in P. putida KT2440 pCdrA::gfpC; format: cell-based
R11 (WP_162024566-LBD) [12] = test: Thermal shift assay of the R11 LBD; format: binding, Lentimonas sp. CC4; settings: change in Tm, threshold 2 °C
R6 (WP_185834821-LBD) [13] = molecular target: T2, R6 (WP_185834821-LBD); test: biochemical; format: binding
[14] = ITC, One binding site model, * = hyperbolic curve

Sequence of R14 (WP_021170906-LBD) (A0A0U1L1T7 entry or part of it): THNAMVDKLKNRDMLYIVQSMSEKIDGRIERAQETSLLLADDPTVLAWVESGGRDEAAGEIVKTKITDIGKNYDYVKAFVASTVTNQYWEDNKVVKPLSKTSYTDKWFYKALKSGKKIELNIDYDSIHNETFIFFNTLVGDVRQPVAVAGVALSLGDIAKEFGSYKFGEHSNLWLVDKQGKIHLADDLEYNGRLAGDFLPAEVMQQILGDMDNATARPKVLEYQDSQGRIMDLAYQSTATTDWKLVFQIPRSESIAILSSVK
T1 sequence (A0ABX0IZG8 entry or part of it): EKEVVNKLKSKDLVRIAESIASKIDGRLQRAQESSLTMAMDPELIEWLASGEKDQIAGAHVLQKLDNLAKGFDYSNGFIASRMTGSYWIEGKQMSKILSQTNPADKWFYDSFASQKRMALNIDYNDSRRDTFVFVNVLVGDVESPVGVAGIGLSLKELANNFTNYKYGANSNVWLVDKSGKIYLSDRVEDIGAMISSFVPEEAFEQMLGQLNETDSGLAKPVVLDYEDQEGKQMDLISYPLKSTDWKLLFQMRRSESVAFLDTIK

## Nc1cc[nH]c(=O)n1 [Cytosine]
R5 (WP_131005693-LBD) [1]
  Binding in thermal shift assay, R5: Nts^b (no binding observed in thermal shift assays, i.e., compounds caused changes in the midpoint of protein unfolding (Tm) of less than 2 °C)
R11 (WP_162024566-LBD) [2]
  Binding in microcalorimetric titration, R11: Nb^a
R14 (WP_021170906-LBD); ITC, 25 °C
  Kd: 105 ± 20 µM
R14 (WP_021170906-LBD); [14]
  N value, R14: 0.46
R1 (WP_219614703-LBD); ITC, 25 °C, pH 7.0
  Kd: 1460 µM
R1 (WP_219614703-LBD); [14]
  N value, R1: 0.21
R15 (WP_207952809-LBD) [3]
  Binding in microcalorimetric titration, R15: Nb^a
R4 (WP_199478134-LBD) [4]
  Kd: 74 ± 15 µM
R13 (WP_167859577-LBD)
  Binding in thermal shift assay, R13: Nts^b (no binding observed in thermal shift assays, i.e., compounds caused changes in the midpoint of protein unfolding (Tm) of less than 2 °C)

## c1ncc2nc[nH]c2n1 [Purine]
R11 (WP_162024566-LBD) [2]
  Binding in microcalorimetric titration, R11: Nb^a
R14 (WP_021170906-LBD); ITC, 25 °C
  Kd: 94 ± 19 µM
R14 (WP_021170906-LBD); [14]
  N value, R14: 0.19
R15 (WP_207952809-LBD) [3]
  Binding in microcalorimetric titration, R15: Nb^a
R5 (WP_131005693-LBD) [5]
  Binding in microcalorimetric titration, R5: Nb^a
R4 (WP_199478134-LBD) [4]
  Kd: 2.3 ± 0.3 µM
R13 (WP_167859577-LBD)
  Binding in thermal shift assay, R13: Nts^b (no binding observed in thermal shift assays, i.e., compounds caused changes in the midpoint of protein unfolding (Tm) of less than 2 °C)

## N[C@@H](Cc1c[nH]c2ccccc12)C(=O)O [L-Trp]
[6]
  Shift in the thermal shift assays: did not produce any significant shift

## NC(=O)CC[C@H](N)C(=O)O [L-Gln]
[6]
  Shift in the thermal shift assays: did not produce any significant shift

## Cc1c[nH]c(=O)[nH]c1=O [Thymine]
R5 (WP_131005693-LBD) [1]
  Binding in thermal shift assay, R5: Nts^b (no binding observed in thermal shift assays, i.e., compounds caused changes in the midpoint of protein unfolding (Tm) of less than 2 °C)
R11 (WP_162024566-LBD) [2]; pH 7.0, 1 mM β-mercaptoethanol, read-out: Dissociation constant, R11
  Kd: 854 ± 254 µM
R14 (WP_021170906-LBD); ITC, 25 °C
  Kd: 32 ± 8.9 µM
R14 (WP_021170906-LBD); [14]
  N value, R14: 0.99
R1 (WP_219614703-LBD); ITC, 25 °C, pH 7.0
  Kd: 595 ± 47 µM
R1 (WP_219614703-LBD); [14]
  N value, R1: 0.20
R15 (WP_207952809-LBD) [3]
  Binding in microcalorimetric titration, R15: Nb^a
R4 (WP_199478134-LBD) [4]
  Kd: 21 ± 0.4 µM
R13 (WP_167859577-LBD)
  Binding in thermal shift assay, R13: Nts^b (no binding observed in thermal shift assays, i.e., compounds caused changes in the midpoint of protein unfolding (Tm) of less than 2 °C)

## O=c1[nH]c(=O)c2nc[nH]c2[nH]1 [Xanthine]
R8 (WP_227113344-LBD); One binding site model, * = hyperbolic curve
  N value, R8: 0.15
[7]
  Proteins that bound / recognized the ligand: 2
R11 (WP_162024566-LBD) [2]
  Binding in microcalorimetric titration, R11: Nb^a
R14 (WP_021170906-LBD); ITC, 25 °C
  Kd: 5.1 ± 0.9 µM
R14 (WP_021170906-LBD); [14]
  N value, R14: 0.13
R1 (WP_219614703-LBD); ITC, 25 °C, pH 7.0
  Binding in microcalorimetric titration, R1: Nb^a
R6 (WP_185834821-LBD) [8]
  Binding in thermal shift assay, R6: Nts^b (no binding observed in thermal shift assays, i.e., compounds caused changes in the midpoint of protein unfolding (Tm) of less than 2 °C)
R15 (WP_207952809-LBD) [3]
  Kd: 7.6 ± 1.1 µM
  N value, R15: 0.05
R5 (WP_131005693-LBD) [5]
  Binding in microcalorimetric titration, R5: Nb^a
R4 (WP_199478134-LBD) [9]
  Binding in thermal shift assay, R4: Nts^b (no binding observed in thermal shift assays, i.e., compounds caused changes in the midpoint of protein unfolding (Tm) of less than 2 °C)
R10 (WP_110129388-LBD)
  Binding in thermal shift assay, R10: Tsa^c (binding observed in thermal shift assays, i.e., compounds caused changes in Tm of more than 2 °C)
R13 (WP_167859577-LBD)
  Binding in thermal shift assay, R13: Nts^b (no binding observed in thermal shift assays, i.e., compounds caused changes in the midpoint of protein unfolding (Tm) of less than 2 °C)

## CN [methylamine]
[6]
  Shift in the thermal shift assays: did not produce any significant shift

## C[N+](C)(C)CCO [choline]
[6]
  Shift in the thermal shift assays: did not produce any significant shift

## Nc1ncnc2c1ncn2[C@@H]1O[C@H](CO)[C@@H](O)[C@H]1O [Adenosine]
R5 (WP_131005693-LBD) [1]
  Binding in thermal shift assay, R5: Nts^b (no binding observed in thermal shift assays, i.e., compounds caused changes in the midpoint of protein unfolding (Tm) of less than 2 °C)
R11 (WP_162024566-LBD) [2]
  Binding in microcalorimetric titration, R11: Nb^a
R14 (WP_021170906-LBD)
  N value, R14: 0.41
R14 (WP_021170906-LBD); ITC, 25 °C
  Kd: 17 ± 4.1 µM
R1 (WP_219614703-LBD)
  N value, R1: 0.13
R1 (WP_219614703-LBD); ITC, 25 °C, pH 7.0
  Kd: 1.1 ± 0.1 µM
R6 (WP_185834821-LBD) [8]
  Binding in thermal shift assay, R6: Nts^b (no binding observed in thermal shift assays, i.e., compounds caused changes in the midpoint of protein unfolding (Tm) of less than 2 °C)
R15 (WP_207952809-LBD) [3]
  Binding in microcalorimetric titration, R15: Nb^a
R4 (WP_199478134-LBD) [4]
  Kd: 88 ± 12 µM
R10 (WP_110129388-LBD); cells left empty in Table 3
  Binding in thermal shift assay, R10 (Supplementary Table 3): Nts (No binding observed in thermal shift assays, i.e. compounds caused changes in the midpoint of protein unfolding (Tm) of less than 2 ºC)
R13 (WP_167859577-LBD)
  Binding in thermal shift assay, R13: Nts^b (no binding observed in thermal shift assays, i.e., compounds caused changes in the midpoint of protein unfolding (Tm) of less than 2 °C)

## NC(=O)NC1NC(=O)NC1=O (stereo not shown) [Allantoin]
R15 (WP_207952809-LBD) [10]
  Binding in thermal shift assay, R15: Nts^b (no binding observed in thermal shift assays, i.e., compounds caused changes in the midpoint of protein unfolding (Tm) of less than 2 °C)
R8 (WP_227113344-LBD); 25 °C, pH 6.0
  Binding in microcalorimetric titration, R8: Nb^a
R5 (WP_131005693-LBD) [1]
  Binding in thermal shift assay, R5: Nts^b (no binding observed in thermal shift assays, i.e., compounds caused changes in the midpoint of protein unfolding (Tm) of less than 2 °C)
R11 (WP_162024566-LBD) [2]
  Binding in microcalorimetric titration, R11: Nb^a
R14 (WP_021170906-LBD); ITC, 25 °C
  Binding in microcalorimetric titration, R14: Nb^a
R4 (WP_199478134-LBD) [9]
  Binding in thermal shift assay, R4: Nts^b (no binding observed in thermal shift assays, i.e., compounds caused changes in the midpoint of protein unfolding (Tm) of less than 2 °C)
R13 (WP_167859577-LBD)
  Binding in thermal shift assay, R13: Nts^b (no binding observed in thermal shift assays, i.e., compounds caused changes in the midpoint of protein unfolding (Tm) of less than 2 °C)

## NCCO [ethanolamine]
[6]
  Shift in the thermal shift assays: did not produce any significant shift

## Nc1nc2c(ncn2[C@@H]2O[C@H](CO)[C@@H](O)[C@H]2O)c(=O)[nH]1 [Guanosine]
R5 (WP_131005693-LBD) [1]
  Binding in thermal shift assay, R5: Nts^b (no binding observed in thermal shift assays, i.e., compounds caused changes in the midpoint of protein unfolding (Tm) of less than 2 °C)
R14 (WP_021170906-LBD); ITC, 25 °C
  Kd: 25 ± 4.9 µM
R14 (WP_021170906-LBD); [14]
  N value, R14: 0.13
R1 (WP_219614703-LBD); ITC, 25 °C, pH 7.0
  Kd: 1.2 ± 0.1 µM
R1 (WP_219614703-LBD); [14]
  N value, R1: 0.21
[11]; agar plates, wild-type R6 (VC2224)
  Concentration causing high c-di-GMP levels: 1 mM
[11]; minimal medium agar plates, 24 h, 30 °C, wild-type R6
  Concentration at which colonies became wrinkly (onset of the response): 100 µM
R15 (WP_207952809-LBD) [3]
  Kd: 37 ± 4 µM
  N value, R15: 0.70
R11 (WP_162024566-LBD) [12]
  Binding in thermal shift assay, R11: Tsa^c (binding observed in thermal shift assays, i.e., compounds caused changes in Tm of more than 2 °C)
R4 (WP_199478134-LBD) [9]
  Binding in thermal shift assay, R4: Nts^b (no binding observed in thermal shift assays, i.e., compounds caused changes in the midpoint of protein unfolding (Tm) of less than 2 °C)
R10 (WP_110129388-LBD)
  Binding in thermal shift assay, R10: Tsa^c (binding observed in thermal shift assays, i.e., compounds caused changes in Tm of more than 2 °C)
R6 (WP_185834821-LBD) [13]
  Kd: 25 ± 5.2 µM
R6 (WP_185834821-LBD) [13]; [14]
  N value, R6: 0.35
R13 (WP_167859577-LBD)
  Binding in thermal shift assay, R13: Nts^b (no binding observed in thermal shift assays, i.e., compounds caused changes in the midpoint of protein unfolding (Tm) of less than 2 °C)
